Test results published in US20120053076A1, “METHODS FOR IDENTIFICATION” (Cambridge Enterprise Limited, priority 2009, published 2012).
Like-named read-outs stand apart in the source and are kept apart here.

How the values were obtained:
leukocytes = assay: Chemokine-induced leukocyte migration (cells not specified); type: cell-based; details: description b37, b38
5HT2a = details: rodents, cited from earlier work
Jurkat T cells = assay: SDF-1α induced migration of parental Jurkat T cells; type: cell-based, human
Procedure: Results: The level of the SDF-1α, receptor CXCR4 was similar on Jurkat-D3B and the parental Jurkat T cell line. Furthermore, the Jurkat-D3B cells responded to SDF-1α in a Transwell® chemotaxis assay (see Example 1 for the methodology employed) over a similar concentration range to the parental cell line.
Jurkat T cells and Jurkat-D3B cells were induced to migrate in response to 100 ng/ml SDF-1α (R&D systems; the concentration of SDF-1α which induced maximal cell migration in both lines). The BSCI BN83250 was then added at various concentrations between 0 nM and 1000 nM (each in triplicate) to both the upper and lower compartments (at the same concentration in each compartment, so as not to create a gradient of BSCI concentration). DMSO (1% final concentration) was used as the vehicle, and was present in all wells at equal concentration.

α2-adrenoreceptor [1] = biological target: T1, α2-adrenoreceptor; assay: [3H]-dihydroergocryptine binding to α2-adrenoreceptor membranes; details: 5 nM [3H]-DHE
T1 construct: other: 5 nM [3H]-DHE
Procedure: Methods: Radioligand binding experiments were performed with commercially available membrane preparations from cells expressing the α2-adrenoreceptor (Sigma) in accordance with the manufacturer's instructions. […] Experiments were performed in triplicate, and non-specific binding was determined in the presence of an excess (10 μM) of oxymetazoline.

platelets = assay: ADP-mediated platelet activation/aggregation; type: cell-based
α2-adrenoreceptor [2] = details: radioligand RS-79948-197; Grainger et al. (2005); read-out: Apparent affinity at α2-adrenoreceptor; cited from earlier work
THP-1 cells = assay: MCP-1 induced THP-1 cell migration, Transwell assay; type: cell-based, human; details: MCP-1 25 ng/ml
Procedure: Leukocyte migration was measured using the 96-well format micro Transwell® assay system from Neuroprobe (Gaithersburg, Md., USA). In principle, this assay consists of two chambers separated by a porous membrane. The chemoattractant is placed in the lower compartment and the cells are placed in the upper compartment.
The method was performed essentially as previously described (Reckless & Grainger (1999) Biochem. J. 340:803-11).
First, the cell suspension to be placed in the upper compartment was prepared. The THP-1 cells were pelleted by centrifugation (770×g; 4 mins) and washed with Geys Balanced Salt Solution with 1 mg/ml BSA (GBSS+BSA). This wash was then repeated, and the cells re-pelleted before being resuspended in a small volume of GBSS+BSA for counting, for example using a standard haemocytometer.
The volume of GBSS+BSA was then adjusted depending on the number of cells present so that the cells were at final density of 4.45×10^6 cells per ml of GBSS+BSA. This ensured that there were 100,000 THP-1 cells in each 25 μl of the solution to be placed in the upper chamber of the plate.
The suspension of THP-1 cells at 4.45×10^6 cells/ml was divided into three pots. […] To the second pot, the BSCI was added at the same concentration as in the first pot, but additionally the sstr2 antagonist was also added (for example BIM 23454 [Tulipano et al. (2002) 143:1218-24] or BIM 23627 were added at 66 nM final concentration from a stock solution in GBSS). To the third pot, GBSS+BSA plus vehicle as appropriate was added so that the volumes in three pots are equal, acting as a control.
Next, the chemoattractant solution to be placed in the lower compartment was prepared. MCP-1 was diluted in GBSS+BSA to give a final concentration of 25 ng/ml (after all additions). Note that, as recommended by Frow et al (Med. Res. Rev. 24:276-98) this is the concentration of MCP-1 which induces maximal migration in this system. This solution was divided into three pots, as for the cell suspension. To one pot, the BSCI was added to the same final concentration as was added to the cell suspension, in the second pot the BSCI and the sstr2 antagonist were both added at the same concentration as previously added to the cell suspension, while to the remaining pot GBSS+BSA plus vehicle as appropriate was added so that the volumes in the three pots were equal.
Once the chemoattractant solutions for the lower wells and cell solutions for the upper chambers were prepared, the migration chamber was assembled. 29 μl of the appropriate chemoattractant solution was placed into the lower well of the chamber. Assays were performed with at least triplicate determinations of each condition. Once all the lower chambers were filled, the porous membrane was applied to the chamber in accordance with the manufacturer's instructions. Finally, 25 μl of the appropriate cell solution was applied to each upper chamber. A plastic lid was placed over the entire apparatus to prevent evaporation.
The assembled chamber was incubated at 37° C., 5% CO2, for 2 hours.
At the end of the incubation, the liquid cell suspension was gently removed from the upper chamber, 20 μl of ice-cold 20 mM EDTA in PBS was added to the upper chamber, and the apparatus was incubated at 4° C. for 15 mins. This procedure caused any cells adhering to the underside of the membrane to fall into the lower chamber.
After this incubation the filter was carefully flushed with GBSS+BSA to wash off the EDTA, and then the filter was removed.
The number of cells migrated into the lower chamber under each condition can then be determined by a number of methods, including direct counting, labelling with fluorescent or radioactive markers or through the use of a vital dye. Typically, we utilised the vital dye MTT.

5HT2a receptor = biological target: T2, 5HT2a receptor (Homo sapiens, UniProt P28223); assay: [3H]-ketanserin binding to 5HT2a receptor membranes
T2 construct: purchased Sigma
T2 sequence (P28223 whole entry): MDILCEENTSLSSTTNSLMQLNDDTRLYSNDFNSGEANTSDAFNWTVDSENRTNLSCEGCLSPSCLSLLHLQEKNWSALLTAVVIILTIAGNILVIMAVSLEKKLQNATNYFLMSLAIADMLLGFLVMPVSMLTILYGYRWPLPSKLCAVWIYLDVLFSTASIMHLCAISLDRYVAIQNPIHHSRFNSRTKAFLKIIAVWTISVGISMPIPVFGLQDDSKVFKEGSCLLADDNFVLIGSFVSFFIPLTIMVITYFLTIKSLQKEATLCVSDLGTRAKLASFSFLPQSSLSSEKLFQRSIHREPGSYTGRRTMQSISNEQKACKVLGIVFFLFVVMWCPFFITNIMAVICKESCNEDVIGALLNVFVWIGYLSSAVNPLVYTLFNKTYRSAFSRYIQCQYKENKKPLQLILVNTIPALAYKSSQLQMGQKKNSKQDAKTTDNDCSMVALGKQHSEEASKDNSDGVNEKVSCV
Procedure: Methods: Radioligand binding experiments were performed with commercially available membrane preparations from cells expressing the 5HT2a receptor (Sigma) in accordance with the manufacturer's instructions. [^3H]-ketanserin was used as the radioligand probe (according to the method of Leysen et al. (1988) Pharmacol. Exp. Therap. 244:310-21) at 1 nM concentration (0.05 μCi per reaction). Experiments were performed in triplicate, and non-specific binding was determined in the presence of an excess (10 μM) of metergoline (a relatively non-specific ergot-derived serotonin receptor antagonist).

α2-adrenoreceptor [3] = assay: Blood pressure; type: in vivo; details: description b37
[4] = biological target: type 2 somatostatin receptor (sstr2), human (human) (UniProt P30874); assay: cell-based or functional assay
Sequence of type 2 somatostatin receptor (sstr2), human (human) (P30874 whole entry): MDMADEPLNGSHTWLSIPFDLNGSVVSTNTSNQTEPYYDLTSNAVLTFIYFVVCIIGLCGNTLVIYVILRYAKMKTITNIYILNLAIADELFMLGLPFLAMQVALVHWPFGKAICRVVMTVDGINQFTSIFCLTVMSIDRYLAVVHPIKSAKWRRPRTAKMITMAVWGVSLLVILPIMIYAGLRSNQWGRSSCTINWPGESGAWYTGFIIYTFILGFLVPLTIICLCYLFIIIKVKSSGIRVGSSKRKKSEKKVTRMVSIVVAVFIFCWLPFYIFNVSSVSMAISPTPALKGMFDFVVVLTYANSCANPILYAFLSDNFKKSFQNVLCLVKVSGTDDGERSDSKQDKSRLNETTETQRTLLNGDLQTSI

COc1cc(Br)c(OC)c2c1[C@H](CN)C2 [TCB-2]
Effect on chemokine-induced leukocyte migration, in words (leukocytes): no effect on chemokine-induced leukocyte migration
Head twitching by classical 5HT2a agonists (5HT2a): induce this classical effect
Head twitching by classical 5HT2a agonists (5HT2a; listed as TCB2): powerfully induces head twitch

NC(=O)C1CCC[C@H]2CN3CCc4c([nH]c5ccccc45)[C@@H]3C[C@H]12 (stereo partly shown) [Yohimban-16-amide]
Inhibition of SDF-1α induced migration of Jurkat T cells, in words (Jurkat T cells): neither agent inhibits
Apparent Ka, inhibition of [3H]-DHE binding (α2-adrenoreceptor [1]): 89 ± 13 nM
Effect on ADP-mediated platelet activation/aggregation (platelets): no effect on the activation of platelets in response to ADP
Ki (α2-adrenoreceptor [2]): 770 nM

CN1C[C@H](C(=O)O)C=C2c3cccc4[nH]cc(c34)C[C@H]21 [lysergic acid]
Inhibition of MCP-1 induced THP-1 cell migration, in words (THP-1 cells): neither agent inhibits
Inhibition of SDF-1α induced migration of Jurkat T cells, in words (Jurkat T cells): neither agent inhibits
Ki (5HT2a receptor): 49 ± 12 nM

COC(=O)[C@H]1[C@H]2C[C@@H]3c4[nH]c5cc(OC)ccc5c4CCN3C[C@H]2C[C@@H](OC(=O)c2cc(OC)c(OC)c(OC)c2)[C@@H]1OC [reserpine]
Effect on blood pressure (α2-adrenoreceptor [3]): powerfully lowers blood pressure
Effect on chemokine-induced leukocyte migration, in words (leukocytes): no effect on chemokine-induced leukocyte migration

cortistatin (peptide)
ED50 for inhibition of MCP-1 induced THP-1 cell migration [4]: 75 nM
